Data published in patent US20030013136A1, “Human KCR1 regulation of HERG potassium channel block” (priority 2000, published 2003).

Tests used:
HERG = HERG (Homo sapiens, UniProt Q12809); conditions: 20 min
Procedure: (§1) The rat KCR1 cDNA was provided by Dr. Haruhiro Higashida, Kanazawa University, Japan. […] MiRP1 cDNA was provided by Dr. Steve Goldstein, (Yale University) in vector pCl-neo (Promega of Madison, Wis.).
(§2) Chinese hamster ovary K1 (CHO-K1) cells were obtained from the American Type Culture Collection (Rockville, Md.) and cultured in Ham's F-12 media (Gibco-BRL of Grand Island, N.Y.) supplemented with 10% fetal bovine serum and 1% pen-strep in a humidified, 5% CO2 incubator at 37° C. CHO-K1 cells were transiently transfected using the Lipofectamine transfection reagents and method (Gibco-BRL). When studying HERG alone or HERG+MiRP1, cells were cotransfected with pGFP-IRS (without KCR1). For experiments examining HERG+KCR1, or HERG+KCR1+MiRP1, GFP expression was obtained via the KCR1-containing pGFP-IRS plasmid. In all cases, cells displaying green fluorescence 48 to 72 hours after transfection were subjected to electrophysiologic analysis.
(§3) Potassium currents were recorded at room temperature (20-22° C.) using the whole-cell patch clamp technique. […] Drug effects were recorded in cells following a pre-drug period where control data were obtained (during pulsing), and a 4 minute drug wash-in period throughout which the cell was held at −80 mV.

HERG+KCR1 = HERG+KCR1 (Homo sapiens, UniProt Q12809); conditions: 20 min
Chain of HERG+KCR1 (Q12809 whole entry): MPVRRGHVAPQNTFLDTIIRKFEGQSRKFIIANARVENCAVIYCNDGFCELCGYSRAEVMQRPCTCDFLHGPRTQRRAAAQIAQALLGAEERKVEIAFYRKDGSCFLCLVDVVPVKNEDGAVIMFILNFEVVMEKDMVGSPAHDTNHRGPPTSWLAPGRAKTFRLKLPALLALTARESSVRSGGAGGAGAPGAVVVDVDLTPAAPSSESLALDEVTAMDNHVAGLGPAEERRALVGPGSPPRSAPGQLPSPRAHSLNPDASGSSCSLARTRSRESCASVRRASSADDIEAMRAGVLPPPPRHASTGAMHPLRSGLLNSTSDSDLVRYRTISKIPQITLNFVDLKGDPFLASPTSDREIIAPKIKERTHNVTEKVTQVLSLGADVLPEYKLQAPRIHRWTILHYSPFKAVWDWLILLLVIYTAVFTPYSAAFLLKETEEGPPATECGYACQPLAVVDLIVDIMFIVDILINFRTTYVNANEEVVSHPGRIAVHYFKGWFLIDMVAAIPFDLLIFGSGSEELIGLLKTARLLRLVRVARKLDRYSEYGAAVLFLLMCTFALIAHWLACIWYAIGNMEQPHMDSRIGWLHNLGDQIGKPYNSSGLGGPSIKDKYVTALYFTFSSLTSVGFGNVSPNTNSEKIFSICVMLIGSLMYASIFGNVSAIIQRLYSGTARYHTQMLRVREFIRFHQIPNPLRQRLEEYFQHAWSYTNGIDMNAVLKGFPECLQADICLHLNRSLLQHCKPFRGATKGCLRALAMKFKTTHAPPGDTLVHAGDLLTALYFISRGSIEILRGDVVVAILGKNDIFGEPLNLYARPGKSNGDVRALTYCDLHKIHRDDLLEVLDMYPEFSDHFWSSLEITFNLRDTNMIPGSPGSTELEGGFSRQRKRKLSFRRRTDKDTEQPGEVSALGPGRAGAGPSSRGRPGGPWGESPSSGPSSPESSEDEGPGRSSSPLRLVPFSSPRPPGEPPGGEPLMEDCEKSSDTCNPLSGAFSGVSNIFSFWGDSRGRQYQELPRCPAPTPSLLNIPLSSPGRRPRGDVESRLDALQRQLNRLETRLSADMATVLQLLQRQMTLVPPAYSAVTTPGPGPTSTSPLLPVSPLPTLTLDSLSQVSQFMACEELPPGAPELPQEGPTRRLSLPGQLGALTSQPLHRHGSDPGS
Procedure: as §1, §2, §3

[1] = target: HERG/MiRP1 complex (human); test: cell-based or functional assay
Chain of HERG/MiRP1 complex (human) (A5H1P7 whole entry, one chain of several): as the sequence (Q12809 whole entry) above

Chain of HERG (Q12809 whole entry): as above

Molecule | HERG tail current remaining, % of the pre-drug control (HERG) | HERG tail current remaining, % of the pre-drug control (HERG+KCR1) | fast time constant of deactivation at -120 mV, HERG+KCR1+MiRP1 (whole-cell patch clamp, CHO-K1 cells) [1] | slow time constant of deactivation at -120 mV, HERG+KCR1+MiRP1 (whole-cell patch clamp, CHO-K1 cells) [1]
CC(C)NC[C@@H](O)c1ccc(NS(C)(=O)=O)cc1 [d-sotalol] | 54±9% | 95±6% | – | –
rat KCR1 (from UniProt O88788 1-474) | – | – | 22.5 | 251
